Marks after values point to notes of the source that are not given here.
Tests used:
[1] = Octanol/water distribution coefficient (LogD); assay type: physicochemical; settings: n-octanol / Milli-Q water
Procedure: The LogD was determined experimentally based on the procedure described earlier. Briefly, the radiolabeled compound of interest was added to a LoBind Eppendorf tube (Eppendorf, Hamburg, Germany) containing Milli-Q water (500 μL) and n-octanol (500 μL), and the mixture was vortexed and centrifuged. Thereafter, three fractions from each phase were collected and the activity was measured using a gamma counter. The LogD was calculated by dividing the average activity measured in octanol by the average activity measured in water.

PSMA [2] = target: T1, PSMA (Homo sapiens, UniProt Q04609); experiment: Real-time binding kinetics on living PC3-pip cells (LigandTracer Yellow); settings: 5 nM tracer, 1:2 interaction model
T1 construct: expressed in transfected cells; host or cells: PC3-pip cells (from Prof. Martin G. Pomper, Johns Hopkins University)
T1 sequence (Q04609 whole entry): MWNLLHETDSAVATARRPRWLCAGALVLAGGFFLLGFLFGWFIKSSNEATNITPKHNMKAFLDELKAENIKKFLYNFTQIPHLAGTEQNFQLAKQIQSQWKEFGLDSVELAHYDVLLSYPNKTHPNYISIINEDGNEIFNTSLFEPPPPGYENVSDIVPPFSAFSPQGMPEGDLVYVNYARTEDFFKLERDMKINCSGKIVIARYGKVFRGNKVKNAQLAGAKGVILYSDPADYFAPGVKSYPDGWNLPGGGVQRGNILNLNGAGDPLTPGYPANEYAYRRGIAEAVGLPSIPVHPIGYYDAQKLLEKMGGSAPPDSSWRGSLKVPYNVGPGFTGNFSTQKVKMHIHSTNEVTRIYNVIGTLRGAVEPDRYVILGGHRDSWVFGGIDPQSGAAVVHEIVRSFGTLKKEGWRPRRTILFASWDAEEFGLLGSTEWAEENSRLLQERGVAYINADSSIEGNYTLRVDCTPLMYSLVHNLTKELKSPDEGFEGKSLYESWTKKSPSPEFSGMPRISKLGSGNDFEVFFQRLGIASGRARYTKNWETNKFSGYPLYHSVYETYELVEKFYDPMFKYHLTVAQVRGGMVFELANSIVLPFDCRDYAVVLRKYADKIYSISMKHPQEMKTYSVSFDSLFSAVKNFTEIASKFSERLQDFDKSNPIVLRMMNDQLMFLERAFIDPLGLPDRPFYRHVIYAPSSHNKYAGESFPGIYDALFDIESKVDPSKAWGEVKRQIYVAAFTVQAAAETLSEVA
Procedure: The binding kinetics of [^99mTc]Tc-labeled BQ0411, BQ0412, and BQ0413 were measured in real time using LigandTracer Yellow Instruments (Ridgeview Instruments AB, Uppsala, Sweden) on PC3-pip cells, as described earlier. The activity binding was recorded at 5 nM on the radiolabeled tracers for 150 min. After measuring the binding kinetics, the medium containing the labeled tracer was replaced with fresh medium, and the dissociation was monitored over 7 h. […]

[3] = Biodistribution in NMRI mice; assay type: in vivo; settings: for activity in carcass / activity in intestines with content / uptake in blood / uptake in kidney / uptake in liver / uptake in lung / uptake in salivary glands / uptake in spleen / uptake in stomach: 40 pmol/mouse iv; for washout of activity from kidneys: 24 h pi compared to 3 h pi
Procedure: Four NMRI mice were intravenously injected with 40 pmol of the radiotracer (60 kBq, the mass of the injected compound was adjusted with an unlabeled tracer). The mice were euthanized with a lethal intraperitoneal injection of ketamine/xylazine, followed by exsanguination at 3 and 24 h post-injection (pi). The organs of interest were collected, weighed, and measured for their activity content using a gamma counter. The uptake activity in organs was calculated as the percentage of injected activity per gram (%IA/g) for the blood, salivary glands, lungs, liver, spleen, stomach, and kidneys and as %IA for the remaining carcass and the rest of the intestines with content.

[4] = system: PSMA-expressing prostate cancer xenografts (PC3-pip); experiment: Biodistribution and tumor targeting in PC3-pip tumor-bearing mice; assay type: in vivo, BALB/c nu/nu mice; settings: 3 h pi; for activity in carcass / activity in intestines with content / uptake in blood / uptake in bone / uptake in kidney / uptake in liver / uptake in lung / uptake in muscle / uptake in pancreas / uptake in salivary glands / uptake in small intestine / uptake in spleen / uptake in stomach / uptake in tumor: 5 nmol/mouse iv
Procedure: PSMA-expressing prostate cancer xenografts were implanted in BALB/c nu/nu mice by subcutaneous injection of PC3-pip cell suspension in PBS (10^7 cells/animal in 100 µL). The average tumor weight was 0.3 ± 0.2 g at the time of the experiment. Four mice per data point were used. Mice were intravenously injected with 5 nmol of the radiotracer (60 kBq, the mass of the injected compound was adjusted with an unlabeled tracer). The mice were euthanized 3 h pi, and the samples were treated as described above.

[5] = Stability of the [99mTc]Tc-maG3 complex in PBS and under cysteine challenge (radio-HPLC); assay type: physicochemical; settings: room temperature, 1 h
Procedure: The iTLC data were cross-validated using radio-HPLC analysis, performed using a Hitachi Chromaster HPLC system with a radioactivity detector and Phenomenex Luna® C18 column (100 Å; 150 × 4.6 mm; 5 µm) at room temperature (20 °C), in the following conditions: solvent A: 0.1% trifluoroacetic acid (TFA) in H2O, solvent B: 0.1% TFA in acetonitrile, flow rate: 1 mL/min. For identity and purity analysis of [^99mTc]Tc-BQ0411 and [^99mTc]Tc-BQ0412, the method with a gradient from 5 to 60% solvent B over 20 min was used.
To evaluate the chemical stability of the [^99mTc]Tc-maG3 complex, fractions of radiolabeled conjugates (10 µL, 0.25 µg) were incubated with a 300× molar excess of cysteine or with PBS at room temperature for 1 h. The test was run in triplicate.

PSMA [6] = target: T1, PSMA; experiment: In vitro binding specificity (saturation with non-labeled PSMA-11) on PC3-pip cells; settings: 2 nM tracer, 250-fold molar excess of PSMA-11, 1 h, 37 °C
Procedure: For the in vitro binding specificity test, approximately 8 × 10^5 of PC3-pip cells per well were seeded in 6-well plates 24 h before the experiment. Cells in three control wells were pre-saturated with a 250-fold excess of non-labeled PSMA-11 15 min before the addition of radiotracers, while the second set was treated with complete media. After 15 min of incubation at room temperature, [^99mTc]Tc-labeled radioligands were added to all wells to reach a concentration of 2 nM. After one hour of incubation at 37 °C, the cells were washed with PBS solution, detached, and collected. Cell-associated activity was measured using a gamma counter and presented as the percentage of added activity.

PC3-pip cells = experiment: Cellular processing (internalization) during continuous incubation; assay type: cell-based; settings: 2 nM, 37 °C
Procedure: To evaluate the cellular processing of [^99mTc]Tc-labeled BQ0411 and BQ0412, PC3-pip cells were incubated with the radiolabeled tracer (2 nM), and at predetermined time points (1, 2, 4, and 8 h), cells were treated with 0.5 mL of 4 M urea solution in a 0.2 M glycine buffer, pH 2.5, for 5 min on ice. After that, the acidic supernatant was collected, and this fraction was considered to be the membrane-bound activity. To lyse the cells, 0.5 mL of 1 M sodium hydroxide solution was added and incubated at 37 °C for at least 20 min. The alkaline-containing solution was collected, and the basic fraction was considered to be the internalized activity.

Question: Which results are given for `CC(=O)N[C@@H](CCCCNC(=O)CNC(=O)C(CCC(=O)O)[N]1C(=O)C(CCC(=O)O)[N]2C(=O)C(CCC(=O)O)[N]3C(=O)C[S][99Tc-]312=[O])C(=O)NCCCCCCCC(=O)N[C@@H](Cc1ccc(O)cc1)C(=O)N[C@@H](Cc1ccc2ccccc2c1)C(=O)NCCCC[C@H](NC(=O)N[C@@H](CCC(=O)O)C(=O)O)C(=O)O` (stereo partly drawn) [[^99mTc]Tc-BQ0413]?
Answer: logD (octanol–water distribution coefficient) [1]: −2.5 ± 0.1; ka1 (PSMA [2]): 33000 M⁻¹ s⁻¹; ka2 (PSMA [2]): 2.9e+08 M⁻¹ s⁻¹; kd1 (PSMA [2]): 2.9e-06 s⁻¹; kd2 (PSMA [2]): 2.3e-09 s⁻¹; activity in carcass ([3]; 3 h pi): 9 ± 1 %IA/sample; activity in intestines with content ([3]; 3 h pi): 3.8 ± 0.4 %IA/sample; uptake in blood ([3]; 3 h pi): 0.5 ± 0.1 %IA/g; uptake in kidney ([3]; 3 h pi): 242 ± 43 %IA/g; uptake in liver ([3]; 3 h pi): 0.7 ± 0.1 %IA/g; uptake in lung ([3]; 3 h pi): 1.0 ± 0.3 %IA/g; uptake in salivary glands ([3]; 3 h pi): 3.0 ± 0.1 %IA/g; uptake in spleen ([3]; 3 h pi): 1.2 ± 0.3 %IA/g; uptake in stomach ([3]; 3 h pi): 3.1 ± 0.5 %IA/g; activity in carcass ([3]; 24 h pi): 1.4 ± 0.2 %IA/sample; activity in intestines with content ([3]; 24 h pi): 0.5 ± 0.2 %IA/sample; uptake in blood ([3]; 24 h pi): 0.05 ± 0.01 %IA/g; uptake in kidney ([3]; 24 h pi): 56 ± 14 %IA/g; uptake in liver ([3]; 24 h pi): 0.21 ± 0.03 %IA/g; uptake in lung ([3]; 24 h pi): 0.18 ± 0.03 %IA/g; uptake in salivary glands ([3]; 24 h pi): 0.30 ± 0.01 %IA/g; uptake in spleen ([3]; 24 h pi): 0.3 ± 0.2 %IA/g; uptake in stomach ([3]; 24 h pi): 1.0 ± 0.5 %IA/g; washout of activity from kidneys [3]: 77%; activity in carcass [4]: 1.7 ± 0.3 %IA/sample; activity in intestines with content [4]: 1.7 ± 0.2 %IA/sample; uptake in blood [4]: 0.17 ± 0.04 %IA/g; uptake in bone [4]: 0.2 ± 0.1 %IA/g; uptake in kidney [4]: 9 ± 2 %IA/g; uptake in liver [4]: 0.3 ± 0.1 %IA/g; uptake in lung [4]: 0.3 ± 0.1 %IA/g; uptake in muscle [4]: 0.06 ± 0.02 %IA/g; uptake in pancreas [4]: 0.13 ± 0.02 %IA/g; uptake in salivary glands [4]: 0.5 ± 0.1 %IA/g; uptake in small intestine [4]: 0.2 ± 0.1 %IA/g; uptake in spleen [4]: 0.9 ± 0.5 %IA/g; uptake in stomach [4]: 0.6 ± 0.2 %IA/g; uptake in tumor [4]: 17 ± 3 %IA/g; tumor-to-blood ratio ([4]; 5 nmol/mouse): 94 ± 3; tumor-to-bone ratio ([4]; 5 nmol/mouse): 114 ± 29; tumor-to-liver ratio ([4]; 5 nmol/mouse): 48 ± 5; tumor-to-lung ratio ([4]; 5 nmol/mouse): 52 ± 8; tumor-to-muscle ratio ([4]; 5 nmol/mouse): 284 ± 19; tumor-to-pancreas ratio ([4]; 5 nmol/mouse): 137 ± 10; tumor-to-salivary ratio ([4]; 5 nmol/mouse): 31 ± 3; tumor-to-small intestine ratio ([4]; 5 nmol/mouse): 126 ± 57; tumor-to-spleen ratio ([4]; 5 nmol/mouse): 16 ± 4; tumor-to-stomach ratio ([4]; 5 nmol/mouse): 24 ± 2

Question: Which results are given for `CC(=O)NC(CCCCNC(=O)CNC(=O)C[N]1C(=O)C[N]2C(=O)C[N]3C(=O)C[S][99Tc-]132=[O])C(=O)NCCCCCCCC(=O)NC(Cc1ccc(O)cc1)C(=O)NC(Cc1ccc2ccccc2c1)C(=O)NCCCCC(NC(=O)NC(CCC(=O)O)C(=O)O)C(=O)O` (stereo not drawn) [[^99mTc]Tc-BQ0411]?
Answer: stability in the presence of cysteine ([5]; 300-fold molar excess of cysteine): stable; stability during incubation in PBS ([5]; PBS): stable; logD (octanol–water distribution coefficient) [1]: −2.3 ± 0.1; binding to PC3-pip cells after pre-treatment with excess non-labeled PSMA-11 (PSMA [6]): significantly (p ˂ 0.0001) decreased; ka1 (PSMA [2]): 24000 M⁻¹ s⁻¹; ka2 (PSMA [2]): 67000 M⁻¹ s⁻¹; kd1 (PSMA [2]): 1.4e-05 s⁻¹; kd2 (PSMA [2]): 2e-05 s⁻¹; internalized activity (of cell-associated activity) (PC3-pip cells; 4 h of continuous incubation): 44 ± 1%; internalized activity (of cell-associated activity) (PC3-pip cells; after 4 h (8 h of continuous incubation)): 44.2 ± 0.7%; activity in carcass ([3]; 3 h pi): 6.4 ± 0.8 *^,a,b %IA/sample; activity in intestines with content ([3]; 3 h pi): 43 ± 6 *^,a,b %IA/sample; uptake in blood ([3]; 3 h pi): 1.4 ± 0.7 *^,a %IA/g; uptake in kidney ([3]; 3 h pi): 129 ± 22 *^,a,b %IA/g; uptake in liver ([3]; 3 h pi): 0.8 ± 0.1 *^,a %IA/g; uptake in lung ([3]; 3 h pi): 0.8 ± 0.1 *^,a %IA/g; uptake in salivary glands ([3]; 3 h pi): 0.5 ± 0.1 *^,a,b %IA/g; uptake in spleen ([3]; 3 h pi): 0.38 ± 0.07 *^,b %IA/g; uptake in stomach ([3]; 3 h pi): 0.42 ± 0.07 *^,b %IA/g; activity in carcass ([3]; 24 h pi): 0.21 ± 0.01 ^b %IA/sample; activity in intestines with content ([3]; 24 h pi): 0.3 ± 0.2 %IA/sample; uptake in blood ([3]; 24 h pi): 0.027 ± 0.002 ^b %IA/g; uptake in kidney ([3]; 24 h pi): 3.9 ± 0.6 ^b %IA/g; uptake in liver ([3]; 24 h pi): 0.032 ± 0.004 ^b %IA/g; uptake in lung ([3]; 24 h pi): 0.019 ± 0.005 ^b %IA/g; uptake in salivary glands ([3]; 24 h pi): 0.022 ± 0.005 ^b %IA/g; uptake in spleen ([3]; 24 h pi): 0.015 ± 0.002 %IA/g; uptake in stomach ([3]; 24 h pi): 0.06 ± 0.02 ^b %IA/g; activity remaining in the body ([3]; 3 h pi, excluding activity in the intestines with content): 40–50 % from injected; washout of activity from kidneys [3]: 97%; activity in carcass [4]: 3.5 ± 0.9 %IA/sample; activity in intestines with content [4]: 44 ± 5 ^a,b %IA/sample; uptake in blood [4]: 1.0 ± 0.4 ^b %IA/g; uptake in bone [4]: 0.20 ± 0.06 %IA/g; uptake in kidney [4]: 13 ± 6 %IA/g; uptake in liver [4]: 1.9 ± 0.7 ^a,b %IA/g; uptake in lung [4]: 0.9 ± 0.3 ^a,b %IA/g; uptake in muscle [4]: 0.17 ± 0.05 %IA/g; uptake in pancreas [4]: 0.2 ± 0.1 %IA/g; uptake in salivary glands [4]: 0.4 ± 0.1 %IA/g; uptake in small intestine [4]: 0.9 ± 0.4 %IA/g; uptake in spleen [4]: 1.0 ± 0.2 %IA/g; uptake in stomach [4]: 0.4 ± 0.2 %IA/g; uptake in tumor [4]: 27 ± 4 ^a,b %IA/g; tumor-to-blood ratio ([4]; 5 nmol/mouse): 32 ± 11 ^b; tumor-to-bone ratio ([4]; 5 nmol/mouse): 146 ± 57; tumor-to-kidney ratio ([4]; 5 nmol/mouse): 2.3 ± 0.8 ^a; tumor-to-liver ratio ([4]; 5 nmol/mouse): 16 ± 7 ^a,b; tumor-to-lung ratio ([4]; 5 nmol/mouse): 33 ± 9 ^b; tumor-to-muscle ratio ([4]; 5 nmol/mouse): 173 ± 47 ^b; tumor-to-pancreas ratio ([4]; 5 nmol/mouse): 121 ± 46; tumor-to-salivary ratio ([4]; 5 nmol/mouse): 69 ± 16 ^b; tumor-to-small intestine ratio ([4]; 5 nmol/mouse): 35 ± 18 ^b; tumor-to-spleen ratio ([4]; 5 nmol/mouse): 24 ± 7; tumor-to-stomach ratio ([4]; 5 nmol/mouse): 86 ± 43 ^b; activity uptake in the gastrointestinal tract (with content) [4]: over 40 %IA; tumor uptake, fold higher compared with [99mTc]Tc-BQ0412 and [99mTc]Tc-BQ0413 [4]: 1.6 fold

From paper PMC11011439, “Influence of Molecular Design on the Tumor Targeting and Biodistribution of PSMA-Binding Tracers Labeled with Technetium-99m” (International Journal of Molecular Sciences, 2024)
